Our source for the inhibition values is patent publication US20110002855A1 (NEUROGEN CORPORATION, priority 2007, published 2011).

A value given as a limit tells only on which side of the number the result lay.

The test deals with T1, chimeric human H3 receptor (Homo sapiens, UniProt Q9Y5N1).
T1 construct: made in house; host or cells: Sf9 insect cells (baculovirus); P2 membrane preparation
Description: Chimeric human H3 receptor screening GTP binding assay at 4 μM (Example 8). In kind it is biochemical. Particulars: test compound 4 μM, 1 μM histamine, P2 membranes of Sf9 cells; read-out: % (percent inhibition of agonist-induced GTP-gammaS binding to H3). As for the experimental part: This Example illustrates a representative screening assay for evaluating inhibition of histamine-stimulated GTP-gamma^35S binding. Such GTP binding activity can be used to identify H3 antagonists and inverse agonists. A compound analyzed in this assay is referred to herein as a “test compound,” and the initial identification of antagonists and inverse agonists is performed using a test compound concentration of 4 μM.
Four independent baculoviral stocks (one directing the expression of the chimeric human H3 receptor and three directing the expression of each of the three subunits of a heterotrimeric G-protein) are used to infect a culture of Sf9 cells as described above. P2 membranes are prepared as described above, and are resuspended by Dounce homogenization (tight pestle) in GTP binding assay buffer (50 mM Tris pH 7.4, 120 mM NaCl, 5 mM MgCl2, 2 mM EGTA, 1 mg/ml BSA, 0.2 mg/ml bacitracin, 0.02 mg/ml aprotinin, 0.01 mg/ml saponin, 10 μM GDP) and added to assay tubes at a concentration of 35 μg protein/reaction tube. Non-radiolabeled test compounds are added to separate reactions at a concentration of 4 μM along with 1 μM histamine (agonist). Reactions are initiated by the addition of 125 pM GTP-gamma^35S with a final assay volume of 0.20 ml.
After a 60-min incubation at room temperature, reactions are terminated by vacuum filtration over GF/C filters (pre-soaked in 50 mM Tris pH 7.4, 120 mM NaCl plus 0.1% BSA) followed by washing with ice-cold buffer (50 mM Tris pH 7.4, 120 mM NaCl). The amount of receptor-bound (and thereby membrane-bound) GTP-gamma^35S is determined by measuring the bound radioactivity, preferably by liquid scintillation spectrometry of the washed filters. Non-specific binding is determined using 10 uM GTP-gammaS and typically represents less than 5 percent of total binding. After subtraction of non-specific binding, data is expressed as percent inhibition of 1 μM histamine signal.
Neutral antagonists are those test compounds that reduce the histamine-stimulated GTP binding activity towards, but not below, baseline levels. In contrast, in the absence of added histamine, inverse agonists reduce the GTP binding activity of the receptor-containing membranes below baseline. Any test compound that elevates GTP binding activity above baseline in the absence of added histamine in this assay is defined as having agonist activity.

Usually inhibition stands for the share of the control response that was lost under treatment.

T1 sequence (Q9Y5N1 with tags, fused parts or gaps): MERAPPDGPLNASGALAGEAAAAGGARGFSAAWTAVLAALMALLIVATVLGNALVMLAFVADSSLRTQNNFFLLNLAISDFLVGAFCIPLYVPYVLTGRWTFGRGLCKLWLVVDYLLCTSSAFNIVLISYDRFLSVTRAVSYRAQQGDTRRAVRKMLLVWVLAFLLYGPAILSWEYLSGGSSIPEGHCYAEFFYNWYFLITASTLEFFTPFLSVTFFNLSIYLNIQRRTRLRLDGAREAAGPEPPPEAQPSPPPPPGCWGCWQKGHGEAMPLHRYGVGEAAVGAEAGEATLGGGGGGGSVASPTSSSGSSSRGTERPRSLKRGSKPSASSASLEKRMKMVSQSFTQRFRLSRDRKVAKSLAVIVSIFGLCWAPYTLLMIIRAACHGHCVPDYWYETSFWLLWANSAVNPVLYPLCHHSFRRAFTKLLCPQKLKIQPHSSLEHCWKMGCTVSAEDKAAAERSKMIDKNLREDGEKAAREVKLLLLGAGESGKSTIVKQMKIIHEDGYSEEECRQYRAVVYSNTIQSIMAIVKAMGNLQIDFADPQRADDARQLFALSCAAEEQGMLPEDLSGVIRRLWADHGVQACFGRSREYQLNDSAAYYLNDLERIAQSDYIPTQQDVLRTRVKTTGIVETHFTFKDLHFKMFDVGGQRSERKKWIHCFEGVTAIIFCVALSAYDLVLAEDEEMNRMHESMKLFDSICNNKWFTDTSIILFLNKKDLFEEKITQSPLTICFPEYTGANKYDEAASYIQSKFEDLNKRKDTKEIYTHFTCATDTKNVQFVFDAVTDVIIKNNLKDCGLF

`CC1CCCCN1C1CCN(C(=O)CN2CCc3c([nH]c4ccccc34)C2)CC1` (stereo not drawn) [Compound 34, 2-[2-(2-Methyl-1,4′-bipiperidin-1′-yl)-2-oxoethyl]-2,3,4,9-tetrahydro-1H-beta-carboline]: the inhibition at 4 µM is at least 90%.
Then `C=CCN1CCN(C(=O)CN2CCc3c([nH]c4ccccc34)C2)CC1` [Compound 35, 2-[2-(4-Allylpiperazin-1-yl)-2-oxoethyl]-2,3,4,9-tetrahydro-1H-beta-carboline], with at least 90%; and `CC(C)N1CCCN(C(=O)CN2CCc3c([nH]c4ccccc34)C2)CC1` [Compound 36, 2-[2-(4-Isopropyl-1,4-diazepan-1-yl)-2-oxoethyl]-2,3,4,9-tetrahydro-1H-beta-carboline], with at least 90%.
As to `O=C(CN1CCc2c([nH]c3ccccc23)C1)N1CCCN(C2CCC2)CC1` [Compound 37, 2-[2-(4-Cyclobutyl-1,4-diazepan-1-yl)-2-oxoethyl]-2,3,4,9-tetrahydro-1H-beta-carboline], the inhibition at 4 µM is at least 90%.
For the molecule `CC1CCCC1N1CCN(C(=O)CN2CCc3c([nH]c4ccccc34)C2)CC1` (stereo not drawn) [Compound 38, 2-{2-[4-(2-Methylcyclopentyl)piperazin-l-yl]-2-oxoethyl}-2,3,4,9-tetrahydro-1H-beta-carboline], the inhibition at 4 µM is at least 90%.
As for `O=C(CN1CCc2c([nH]c3ccccc23)C1)N1CCC(N2CCCC2)C1` (stereo not drawn) [Compound 39, 2-[2-(1,3′-Bipyrrolidin-1′-yl)-2-oxoethyl]-2,3,4,9-tetrahydro-1H-beta-carboline], the inhibition at 4 µM was at least 90%.
On to `O=C(CN1CCc2c([nH]c3ccccc23)C1)N1CCN(C2CCOCC2)CC1` [Compound 40, 2-{2-Oxo-2-[4-(tetrahydro-2H-pyran-4-yl)piperazin-1-yl]ethyl}-2,3,4,9-tetrahydro-1H-beta-carboline], for which the inhibition at 4 µM was at least 90%.
Consider `O=C(CN1CCc2c([nH]c3ccccc23)C1)N1CCN(C2CCCCC2)CC1` [Compound 41, 2-[2-(4-Cyclohexylpiperazin-1-yl)-2-oxoethyl]-2,3,4,9-tetrahydro-1H-beta-carboline], for which the inhibition at 4 µM was at least 90%.
The value for `CCN1CCN(C(=O)CN2CCc3c([nH]c4ccccc34)C2)CC1` [Compound 42, 2-[2-(4-Ethylpiperazin-1-yl)-2-oxoethyl]-2,3,4,9-tetrahydro-1H-beta-carboline] was at least 90%; that for `CN1CCC(N(C)C(=O)CN2CCc3c([nH]c4ccccc34)C2)CC1` [Compound 43] was at least 90%; that for `CCCN1CCN(C(=O)CN2CCc3c([nH]c4ccccc34)C2)CC1` [Compound 44, 2-[2-(4-propylpiperazin-1-yl)-2-oxoethyl]-2,3,4,9-tetrahydro-1H-beta-carboline] was at least 90%.
The value for `O=C(CN1CCc2c([nH]c3ccccc23)C1)N1CCN(C2CCCC2)CC1` [Compound 45, 2-[2-(4-Cyclopentylpiperazin-1-yl)-2-oxoethyl]-2,3,4,9-tetrahydro-1H-beta-carboline] was at least 90%; that for `CCN(CC)C1CCN(C(=O)CN2CCc3c([nH]c4ccccc34)C2)CC1` [Compound 46, N,N-Diethyl-1-(1,3,4,9-tetrahydro-2H-beta-carbolin-2-ylacetyl)piperidin-4-amine] was at least 90%.
For the molecule `CCCCN1CCCN(C(=O)CN2CCc3c([nH]c4ccccc34)C2)CC1` [Compound 47, 2-[2-(4-Butyl-1,4-diazepan-1-yl)-2-oxoethyl]-2,3,4,9-tetrahydro-1H-beta-carboline], the inhibition at 4 µM was at least 90%.
Consider `CCCCN1CCN(C(=O)CN2CCc3c([nH]c4ccccc34)C2)CC1` [Compound 48, 2-[2-(4-Butylpiperazin-1-yl)-2-oxoethyl]-2,3,4,9-tetrahydro-1H-beta-carboline], for which the inhibition at 4 µM is at least 90%.
The value for `CCN(CC)C1CCN(C(=O)CN2CCc3c([nH]c4ccccc34)C2)C1` (stereo not drawn) [Compound 49, N,N-Diethyl-1-(1,3,4,9-tetrahydro-2H-beta-carbolin-2-ylacetyl)pyrrolidin-3-amine] was at least 90%.
Then `CC(C)CN1CCN(C(=O)CN2CCc3c([nH]c4ccccc34)C2)CC1` [Compound 50, 2-[2-(4-Isobutylpiperazin-1-yl)-2-oxoethyl]-2,3,4,9-tetrahydro-1H-beta-carboline], with at least 90%.
Then `CCCN(CC1CC1)C1CCN(C(=O)CN2CCc3c([nH]c4ccccc34)C2)CC1` [Compound 51, N-(Cyclopropylmethyl)-N-propyl-1-(1,3,4,9-tetrahydro-2H-beta-carbolin-2-ylacetyl)piperidin-4-amine], with at least 90%; and `O=C(CN1CCc2c([nH]c3ccccc23)C1)N1CCC(N2CCCC2)CC1` [Compound 52, 2-[2-Oxo-2-(4-pyrrolidin-1-ylpiperidin-1-yl)ethyl]-2,3,4,9-tetrahydro-1H-beta-carboline], with at least 90%.
For the molecule `O=C(CN1CCc2c([nH]c3ccccc23)C1)N1CCC(N2CCCCC2)CC1` [Compound 53, 2-[2-(1,4′-Bipiperidin-1′-yl)-2-oxoethyl]-2,3,4,9-tetrahydro-1H-beta-carboline], the inhibition at 4 µM is at least 90%.
Then `COCCN(C(=O)CN1CCc2c([nH]c3ccccc23)C1)C1CCN(C)CC1` [Compound 54, N-(2-Methoxyethyl)-N-(1-methylpiperidin-4-yl)-2-(1,3,4,9-tetrahydro-2H-beta-carbolin-2-yl)acetamide], with at least 90%.
As to `O=C(CN1CCc2c([nH]c3ccccc23)C1)N1CCN(CCCN2CCCC2)CC1` [Compound 55, 2-{2-Oxo-2-[4-(3-pyrrolidin-1-ylpropyl)piperazin-1-yl]ethyl}-2,3,4,9-tetrahydro-1H-beta-carboline], the inhibition at 4 µM is at least 90%.
Then `O=C(CN1CCc2c([nH]c3ccccc23)C1)N1CCN(CCN2CCCCC2)CC1` [Compound 56, 2-{2-Oxo-2-[4-(2-piperidin-1-ylethyl)piperazin-1-yl]ethyl}-2,3,4,9-tetrahydro-1H-beta-carboline], with at least 90%.
On to `O=C(CN1CCc2c([nH]c3ccccc23)C1)N1CCN(CCCN2CCCCC2)CC1` [Compound 57, 2-{2-Oxo-2-[4-(3-piperidin-1-ylpropyl)piperazin-1-yl]ethyl}-2,3,4,9-tetrahydro-1H-beta-carboline], for which the inhibition at 4 µM is at least 90%.
The value for `O=C(CN1CCc2c([nH]c3ccccc23)C1)N1CCN(CCN2CCCC2)CC1` [Compound 58, 2-{2-Oxo-2-[4-(2-pyrrolidin-1-ylethyl)piperazin-1-yl]ethyl}-2,3,4,9-tetrahydro-1H-beta-carboline] was at least 90%; that for `CC(c1ccccc1)N1CCN(C(=O)CN2CCc3c([nH]c4ccccc34)C2)CC1` (stereo not drawn) [Compound 59, 2-{2-Oxo-2-[4-(1-phenylethyl)piperazin-1-yl]ethyl}-2,3,4,9-tetrahydro-1H-beta-carboline] was at least 90%; that for `CCCN(C(=O)CN1CCc2c([nH]c3ccccc23)C1)C1CCN(C)CC1` [Compound 60, N-(1-Methylpiperidin-4-yl)-N-propyl-2-(1,3,4,9-tetrahydro-2H-beta-carbolin-2-yl)acetamide] was at least 90%.
Then `CN(C)CCCN(C(=O)CN1CCc2c([nH]c3ccccc23)C1)C1CCN(C)CC1` [Compound 61, N-[3-(Dimethylamino)propyl]-N-(1-methylpiperidin-4-yl)-2-(1,3,4,9-tetrahydro-2H-beta-carbolin-2-yl)acetamide], with at least 90%; and `CCN(C(=O)CN1CCc2c([nH]c3ccccc23)C1)C1CCN(C)CC1` [Compound 62, N-(1-Methylpiperidin-4-yl)-N-ethyl-2-(1,3,4,9-tetrahydro-2H-beta-carbolin-2-yl)acetamide], with at least 90%.
Then `CN(CCN1CCCC1)C(=O)CN1CCc2c([nH]c3ccccc23)C1` [Compound 63], with at least 90%.
